{
  "source": "paper PMC5663397",
  "about": "“A composite docking approach for the identification and characterization of ectosteric inhibitors of cathepsin K” (PLoS ONE, 2017)",
  "key": {"MMP-1 [1]": {"target": "T1, MMP-1 (Homo sapiens, UniProt P03956)", "T1 sequence (P03956 100-469)": "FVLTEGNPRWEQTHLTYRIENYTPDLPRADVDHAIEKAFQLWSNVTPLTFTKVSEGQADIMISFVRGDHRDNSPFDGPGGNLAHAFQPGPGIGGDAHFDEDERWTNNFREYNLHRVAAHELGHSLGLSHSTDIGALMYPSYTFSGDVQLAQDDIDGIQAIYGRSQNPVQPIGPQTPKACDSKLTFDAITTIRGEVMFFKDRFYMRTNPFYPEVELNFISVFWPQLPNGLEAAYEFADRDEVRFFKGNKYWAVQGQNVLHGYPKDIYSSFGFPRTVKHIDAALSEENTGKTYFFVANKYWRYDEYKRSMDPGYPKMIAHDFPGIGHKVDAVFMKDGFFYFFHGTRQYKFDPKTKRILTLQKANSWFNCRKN", "experiment": "Collagen digestion with MMP-1", "format": "biochemical", "conditions": "50 μM inhibitor, 400 nM MMP-1", "description": "(§1) Digestion with MMP-1 was performed in 50 mM Tris-HCl, pH 7.4, containing 200 mM NaCl and 5 mM CaCl2 at 28°C for 4 h. Reactions were stopped by adding 25 mM EDTA as previously described. Samples were analyzed using 10% SDS-PAGE gels and stained with Coomassie. The resulting bands of α-collagen chains were quantitatively assessed using ImageJ (Version 1.5) and IC50 graphs were plotted using GraphPad Prism (GraphPad Software, Version 5.0, La Jolla California USA)."}, "CatK [2]": {"target": "T2, CatK (Homo sapiens, UniProt P43235)", "T2 construct": "made in house; host or cells: Pichia pastoris", "T2 sequence (P43235 115-329)": "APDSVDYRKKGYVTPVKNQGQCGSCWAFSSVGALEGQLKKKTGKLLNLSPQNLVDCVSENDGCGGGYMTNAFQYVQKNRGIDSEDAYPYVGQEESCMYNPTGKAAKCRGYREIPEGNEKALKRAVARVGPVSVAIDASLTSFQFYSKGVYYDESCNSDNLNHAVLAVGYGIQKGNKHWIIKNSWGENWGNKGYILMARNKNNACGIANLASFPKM", "experiment": "Z-Phe-Arg-MCA cleavage assay with CatK", "format": "biochemical", "conditions": "100 μM inhibitor, 5 nM CatK, 5 μM substrate, pH 5.5", "description": "The enzymatic activity of CatK was monitored by measuring the rate of release of the fluorogenic group, amino-methyl coumarin at an excitation wavelength of 380 nm and an emission wavelength of 450 nm using a Molecular Devices SpectraMax Gemini spectrofluorometer. Inhibitors were added prior to measurement of enzyme activity. The assays were performed at 25°C at a fixed enzyme concentrations (5 nM) and substrate concentration (5 μM) in 100 mM sodium acetate buffer, pH 5.5, containing 2.5 mM DTT and 2.5 mM EDTA. Z-Phe-Arg-MCA hydrolysis with trypsin was carried out in 50 mM Tris-HCl, pH 8.8 at 10 nM enzyme concentration."}, "human osteoclasts [3]": {"system": "human osteoclasts", "experiment": "Osteoclast survival: CellTiter-Blue metabolic activity and osteoclast count after TRAcP staining", "format": "cell-based", "conditions": "compared with untreated cells", "description": "(§2) Osteoclasts were generated from mononuclear cells isolated from human bone marrow tissue (Lonza, Walkersville, MD). The bone marrow cells were centrifuged at 400 g for 5 min and the pellet was re-suspended in 10 mL α-MEM (α-Minimal Essential Media) and layered on 10 ml Ficoll-Plaque media solution. After centrifugation at 500 g for 30 min, the white interface containing the monocytes was harvested and washed twice with α-MEM. Cells were cultured in α-MEM containing 10% FBS and 25 ng/mL M-CSF for 24 hours and then cultured in 25 ng/mL RANKL and 25 ng/mL M-CSF for 7 days. Differentiated osteoclasts (100,000 cells per slice) were then seeded on each bone slice (5.5 mm diameter and 0.4 mm thickness; self-made) in the presence or absence of inhibitors and incubated for 72 hours at 5% CO2 and 37°C with the DMSO concentration at 0.1%. The inhibitor concentration range tested varied between 50 nM to 3 μM.\n(§3) To compare the effects of the compounds on cell survival, the metabolic activity of osteoclasts was determined using the CellTiter-Blue Viability Assay (Promega, Madison, WI, USA). Bone slices from each condition (inhibitor-treated and control groups) were fixed in 4% formaldehyde and subsequently stained for tartrate-resistant acid phosphatase (TRAcP) activity (Acid Phosphatase, Leukocyte (TRAP) Kit; Sigma-Aldrich). Aliquots from cell culture media were used to determine the CTx-I concentration (MyBiosource ELISA kit, San Diego, CA). CTx-I is a CatK-specific C-terminal cleavage product of triple helical type I collagen. The total number of osteoclasts per bone slice was determined after TRAcP staining. Cells with ≥2 nuclei were counted as osteoclasts. After 72 h, bone slices from each condition were incubated in filtered water for cell lysis and cells were removed using a cotton stick. Subsequently the resorption cavities were stained with toluidine blue and observed by light microscopy. The number of resorption events and eroded bone surface area were determined as previously described. All light microscopic analyses were performed using a Nikon Eclipse LV100 microscope and a Nikon Eclipse Ci microscope."}, "human osteoclasts [4]": {"system": "human osteoclasts", "experiment": "Human osteoclast bone resorption assay on bone slices", "format": "cell-based", "conditions": "1 μM inhibitor, 72 h, versus untreated", "description": "as §2, §3"}, "MMP-1 [5]": {"target": "T1, MMP-1", "experiment": "Gelatin degradation assay with MMP-1", "format": "biochemical", "conditions": "50 μM inhibitor, 10 nM MMP-1", "description": "Gelatin (0.6 mg/mL) degradation assays were performed in the same manner as the collagen degradation experiments with 10 nM enzyme and were incubated at 37°C for one hour at the appropriate pH values for the individual proteases (CatK, pH 5.5; MMP-1, pH 7.4; trypsin, pH 8.8)."}, "quinone oxidoreductase": {"system": "quinone oxidoreductase", "parameters": "method as in PMID 21859103", "conditions": "cited from earlier work"}, "CatK [6]": {"target": "T2, CatK", "experiment": "CatK collagenase assay (type I collagen degradation, SDS-PAGE)", "format": "biochemical", "description": "The collagenase inhibitory activities of all identified compounds were measured using a collagen degradation assay. Soluble bovine type I collagen (0.6 mg/mL) was incubated with 400 nM recombinant human CatK, in the presence or absence of 200 nM chondroitin 4-sulfate (C4-S) in 100 mM sodium acetate buffer, pH 5.5, containing 2.5 mM dithiothreitol (DTT) (Sigma-Aldrich Canada, Oakville, Ontario, Canada) and 2.5 mM ethylenediametetraacetate (EDTA) (Sigma-Aldrich). In the experiments involving detergent to minimize inhibitor aggregation, 0.001% or 0.005% Triton X-100 was added to the buffer with the inhibitor. The recombinant human CatK was expressed in Pichia pastoris and purified as previously described. Selected compounds identified by molecular docking were ordered from the National Cancer Institute through the Developmental Therapeutics Program (Rockville, MD). All compounds were dissolved in DMSO as a 20 or […] stock. […] After incubation at 28°C for 4 hours, 1 μM of E-64 was added to block the residual activity of CatK.\nas §1"}},
  "note": "“And” between values parts separate entries of the source, which are not always exact repeats. Identical values can stand only once. “Also recorded” adds a separate entry of the source. Like-named read-outs stand apart in the source and are kept apart here.",
  "data": [
    {"smiles": "CN(C)CCCNc1ccc2ncn3c4ccccc4c(=O)c1c23", "note": "[compound 3, 5-(3-(dimethylamino)propylamino)-6H-imidazo[4,5,1-de]acridin-6-one]", "values": [
      {"measurement": "inhibitory activity towards the collagenase activity of MMP-1", "setting": "MMP-1 [1]", "result": "no inhibitory activity; also recorded: did not show inhibition"},
      {"measurement": "inhibition at 100 µM", "setting": "CatK [2]", "result": "5 ± 2.7", "unit": "%"},
      {"measurement": "Metabolic activity of osteoclasts", "setting": "human osteoclasts [3]; CellTiter-Blue", "result": "no significant differences"},
      {"measurement": "number of osteoclasts", "setting": "human osteoclasts [3]; TRAcP staining", "result": "no significant differences"},
      {"measurement": "Number of trenches", "setting": "human osteoclasts [4]", "result": "significant reduction; also recorded: significantly reduced"},
      {"measurement": "percentage of eroded surface area / total eroded surface", "setting": "human osteoclasts [4]", "result": "significant reduction; also recorded: significantly reduced"},
      {"measurement": "inhibitory activity for the gelatinase activity of MMP-1", "setting": "MMP-1 [5]", "result": "no inhibitory activity; also recorded: did not show inhibition"},
      {"measurement": "activity in an inhibitor screen of a quinone oxidoreductase", "setting": "quinone oxidoreductase", "result": "active"},
      {"measurement": "IC50", "setting": "CatK [6]; 400 nM CatK, soluble bovine type I collagen 0.6 mg/mL, pH 5.5, 28°C, 4 h, read-out: Collagenase IC50", "result": "< 20 µM and 4.9 µM and ~5 µM"},
      {"measurement": "IC50", "setting": "CatK [6]; Collagenase IC50 with 0.005% Triton X-100, in the presence of detergent, 0.005% Triton X-100", "result": "5.2 ± 1.5", "unit": "µM"},
      {"measurement": "Collagenase IC50 with 0.005% Triton X-100", "setting": "CatK [6]; in the presence of detergent, 0.005% Triton X-100", "result": "not significantly different"}
    ]}
  ]
}
